Broadly, the IC50 is the point on the concentration scale where inhibition reaches its midpoint.

This passage reports IC50 results from patent US10112929B2, “Lactams as inhibitors of rock” (BRISTOL-MYERS SQUIBB COMPANY, priority 2015, dated 2018).
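Also: rho kinase enzyme reaction halted with EDTA, phospho- and non-phospho peptide separated for read-out, kinase activity inhibition derived across a dose-response series, DMSO under 2%.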

In this assay the target is ROCK2 (Homo sapiens (Human), UniProt O75116).
Sequence of ROCK2 (O75116 whole entry, species assumed): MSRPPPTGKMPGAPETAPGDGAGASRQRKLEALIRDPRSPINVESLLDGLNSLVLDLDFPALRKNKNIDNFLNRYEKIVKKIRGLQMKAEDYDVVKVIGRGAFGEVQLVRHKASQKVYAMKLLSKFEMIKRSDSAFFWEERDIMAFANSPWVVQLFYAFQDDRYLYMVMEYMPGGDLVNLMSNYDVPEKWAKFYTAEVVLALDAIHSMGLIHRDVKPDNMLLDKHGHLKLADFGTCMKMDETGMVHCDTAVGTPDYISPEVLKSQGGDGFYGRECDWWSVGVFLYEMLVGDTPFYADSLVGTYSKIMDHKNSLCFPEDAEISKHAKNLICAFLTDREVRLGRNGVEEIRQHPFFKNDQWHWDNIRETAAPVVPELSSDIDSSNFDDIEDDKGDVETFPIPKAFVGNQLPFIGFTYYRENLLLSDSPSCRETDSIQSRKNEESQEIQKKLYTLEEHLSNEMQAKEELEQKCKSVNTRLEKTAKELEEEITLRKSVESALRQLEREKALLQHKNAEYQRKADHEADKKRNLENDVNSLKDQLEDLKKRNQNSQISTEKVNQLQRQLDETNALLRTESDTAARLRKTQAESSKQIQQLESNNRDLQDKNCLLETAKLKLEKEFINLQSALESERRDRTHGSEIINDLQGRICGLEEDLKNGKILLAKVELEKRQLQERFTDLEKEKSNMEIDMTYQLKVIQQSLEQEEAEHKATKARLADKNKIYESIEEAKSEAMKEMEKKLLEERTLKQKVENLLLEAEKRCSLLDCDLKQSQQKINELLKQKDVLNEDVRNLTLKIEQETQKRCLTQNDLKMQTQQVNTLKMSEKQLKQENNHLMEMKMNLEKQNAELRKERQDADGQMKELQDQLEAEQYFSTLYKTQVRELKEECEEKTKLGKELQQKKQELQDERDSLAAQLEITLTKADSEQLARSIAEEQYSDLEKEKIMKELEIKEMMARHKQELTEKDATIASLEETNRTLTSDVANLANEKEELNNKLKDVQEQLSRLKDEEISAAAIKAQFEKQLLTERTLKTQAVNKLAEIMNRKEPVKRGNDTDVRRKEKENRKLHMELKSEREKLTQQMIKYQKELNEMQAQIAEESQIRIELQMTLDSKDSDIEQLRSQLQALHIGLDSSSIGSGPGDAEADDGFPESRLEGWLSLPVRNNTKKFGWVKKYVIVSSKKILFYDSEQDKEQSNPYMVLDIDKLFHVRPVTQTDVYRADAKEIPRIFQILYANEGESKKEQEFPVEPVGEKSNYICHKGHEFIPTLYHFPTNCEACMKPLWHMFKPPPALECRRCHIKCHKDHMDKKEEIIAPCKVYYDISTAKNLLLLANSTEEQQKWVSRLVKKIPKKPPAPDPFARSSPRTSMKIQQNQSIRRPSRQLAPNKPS
In turn, `COc1cccc(NC2CCN(c3ccc(-c4cn[nH]c4)nc3)C2=O)c1` (single isomer, unassigned) [Example 298, 1-(6-(1H-pyrazol-4-yl)pyridin-3-yl)-3-((3-methoxyphenyl)amino)pyrrolidin-2-one] registered a concentration for half-maximal inhibition (IC50) of 10 to 100 nM.
Under `COc1cc(NC2CCN(c3ccc(-c4cn[nH]c4)nc3)C2=O)ccc1F` (single isomer, unassigned) [Example 300, 1-(6-(1H-pyrazol-4-yl)pyridin-3-yl)-3-((4-fluoro-3-methoxyphenyl)amino)pyrrolidin-2-one] stands 10 to 100 nM; under `COc1ccc(F)c(NC2CCN(c3ccc(-c4cn[nH]c4)cn3)C2=O)c1` (single isomer, unassigned) [Example 304, 1-(5-(1H-pyrazol-4-yl)pyridin-2-yl)-3-((2-fluoro-5-methoxyphenyl)amino)pyrrolidin-2-one], 10 to 100 nM.
As for `COc1cc(NC2CCN(c3ccc(-c4cn[nH]c4)c(F)c3F)C2=O)ccc1F` (single isomer, unassigned) [Example 308, 1-(2,3-difluoro-4-(1H-pyrazol-4-yl)phenyl)-3-((4-fluoro-3-methoxyphenyl)amino)pyrrolidin-2-one], the figure is 10 to 100 nM.
Under `COc1cccc(NC2CCN(c3cc(F)c(-c4cn[nH]c4)c(F)c3)C2=O)c1` (single isomer, unassigned) [Example 312, 1-(3,5-difluoro-4-(1H-pyrazol-4-yl)phenyl)-3-((3-methoxyphenyl)amino)pyrrolidin-2-one] stands less than 10 nM.
With `CCc1nc(N2CCC(Nc3cccc(OC)c3)C2=O)ccc1-c1cn[nH]c1` (single isomer, unassigned) [Example 314, 1-(6-ethyl-5-(1H-pyrazol-4-yl)pyridin-2-yl)-3-((3-methoxyphenyl)amino) pyrrolidin-2-one], the IC50 was less than 10 nM.
As for `COc1cccc(NC2CCN(c3ccc(-c4cn[nH]c4)cc3)C2=O)c1C` (single isomer, unassigned) [Example 326, 1-(4-(1H-pyrazol-4-yl)phenyl)-3-((3-methoxy-2-methylphenyl)amino) pyrrolidin-2-one], the figure is 10 to 100 nM.
In turn, `COc1cccc(NC2CCN(c3ccc(-c4cn[nH]c4)cc3F)C2=O)c1` (single isomer, unassigned) [Example 329, 1-(2-fluoro-4-(1H-pyrazol-4-yl)phenyl)-3-((3-methoxyphenyl)amino)pyrrolidin-2-one] displayed an IC50 of 10 to 100 nM.
As for `COc1cc(NC2CCN(c3ccc(-c4cn[nH]c4)cc3F)C2=O)ccc1F` (single isomer, unassigned) [Example 331, 3-((4-fluoro-3-methoxyphenyl)amino)-1-(2-fluoro-4-(1H-pyrazol-4-yl)phenyl) pyrrolidin-2-one], the figure is 10 to 100 nM.
Under `COc1cc(NC2CCN(c3ccc(-c4cn[nH]c4)c(F)c3)C2=O)ccc1F` (single isomer, unassigned) [Example 333, 3-((4-fluoro-3-methoxyphenyl)amino)-1-(3-fluoro-4-(1H-pyrazol-4-yl)phenyl) pyrrolidin-2-one] stands less than 10 nM; under `COc1ccc(F)c(NC2CCN(c3ccc(-c4cn[nH]c4)c(F)c3)C2=O)c1` (single isomer, unassigned) [Example 335, 1-(3-fluoro-4-(1H-pyrazol-4-yl)phenyl)-3-((2-fluoro-5-methoxyphenyl)amino) pyrrolidin-2-one], 10 to 100 nM.
Under `COc1cc(F)cc(NC2CCN(c3ccc(-c4cn[nH]c4)cc3F)C2=O)c1` (single isomer, unassigned) [Example 339, 1-(2-fluoro-4-(1H-pyrazol-4-yl)phenyl)-3-((3-fluoro-5-methoxyphenyl)amino) pyrrolidin-2-one] stands 10 to 100 nM; under `COc1c(F)cccc1NC1CCN(c2ccc(-c3cn[nH]c3)cc2F)C1=O` (single isomer, unassigned) [Example 343, 3-((3-fluoro-2-methoxyphenyl)amino)-1-(2-fluoro-4-(1H-pyrazol-4-yl)phenyl) pyrrolidin-2-one], 100 to 2200 nM.
